Test results reported in patent US20230017045A1, “PYRIDINE AND PYRIMIDINE CARBOXYLATE HERBICIDES AND METHODS OF USE THEREOF” (Dow AgroSciences LLC, priority 2017, published 2023).

System: test plant species
Experiment: Post-emergent herbicidal activity test (greenhouse, foliar spray, visual growth reduction)
Format: in vivo
Conditions: post-emergence, 336 h, ECHCG: barnyardgrass (Echinochloa crus-galli), 140 g ai/ha, 14 days after application, read-out: Visual Growth Reduction (%) 14 Days After Application, ECHCG
Method in brief: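 Greenhouse plants at first–second true leaf stage sprayed overhead at 187 L/ha with compound in acetone/water/isopropanol/DMSO/crop oil/X-77 carrier; controls received solvent blank. Injury rated visually after 14 d on a 0–100% scale versus untreated and control plants, converted to growth reduction.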

Row | Compound | pest or weed control at 140 g/ha
1 | COC(=O)c1nc(-c2ccc(C(F)(F)F)c(OC)c2)ccc1Cl [F296, Methyl 3-chloro-6-(3-methoxy-4-(trifluoromethyl)phenyl)picolinate] | 0 to 29%
2 | C=C(C)COC(=O)c1nc(-c2ccc(C(F)(F)F)cc2Cl)ccc1Cl [F381, 2-Methylallyl 3-chloro-6-(2-chloro-4-(trifluoromethyl)phenyl)picolinate] | 85 to 94%
3 | COc1cc(C(F)(F)F)ccc1-c1ncc(Cl)c(C(=O)O)n1 [F366, 5-Chloro-2-(2-methoxy-4-(trifluoromethyl)phenyl)pyrimidine-4-carboxylic acid] | 75 to 84%

Same assay, conditions: post-emergence, 336 h, IPOHE: ivy-leaf morning glory (Ipomoea hederacea), 140 g ai/ha, 14 days after application, read-out: Visual Growth Reduction (%) 14 Days After Application, IPOHE

Row | Compound | pest or weed control at 140 g/ha
4 | COC(=O)c1nc(-c2ccc(C(F)(F)F)c(OC)c2)ccc1Cl [F296, Methyl 3-chloro-6-(3-methoxy-4-(trifluoromethyl)phenyl)picolinate] | 45 to 59%
5 | C=C(C)COC(=O)c1nc(-c2ccc(C(F)(F)F)cc2Cl)ccc1Cl [F381, 2-Methylallyl 3-chloro-6-(2-chloro-4-(trifluoromethyl)phenyl)picolinate] | 95 to 100%
6 | COc1cc(C(F)(F)F)ccc1-c1ncc(Cl)c(C(=O)O)n1 [F366, 5-Chloro-2-(2-methoxy-4-(trifluoromethyl)phenyl)pyrimidine-4-carboxylic acid] | 95 to 100%

Same assay, conditions: post-emergence, 336 h, KCHSC: kochia (Bassia scoparia), 140 g ai/ha, 14 days after application, read-out: Visual Growth Reduction (%) 14 Days After Application, KCHSC

Row | Compound | pest or weed control at 140 g/ha
7 | COC(=O)c1nc(-c2ccc(C(F)(F)F)c(OC)c2)ccc1Cl [F296, Methyl 3-chloro-6-(3-methoxy-4-(trifluoromethyl)phenyl)picolinate] | 0 to 29%
8 | C=C(C)COC(=O)c1nc(-c2ccc(C(F)(F)F)cc2Cl)ccc1Cl [F381, 2-Methylallyl 3-chloro-6-(2-chloro-4-(trifluoromethyl)phenyl)picolinate] | 95 to 100%
9 | COc1cc(C(F)(F)F)ccc1-c1ncc(Cl)c(C(=O)O)n1 [F366, 5-Chloro-2-(2-methoxy-4-(trifluoromethyl)phenyl)pyrimidine-4-carboxylic acid] | 0 to 29%

Same assay, conditions: post-emergence, 336 h, ORYSA: rice (Oryza sativa), 140 g ai/ha, 14 days after application, read-out: Visual Growth Reduction (%) 14 Days After Application, ORYSA

Row | Compound | pest or weed control at 140 g/ha
10 | COC(=O)c1nc(-c2ccc(C(F)(F)F)c(OC)c2)ccc1Cl [F296, Methyl 3-chloro-6-(3-methoxy-4-(trifluoromethyl)phenyl)picolinate] | 0 to 29%
11 | C=C(C)COC(=O)c1nc(-c2ccc(C(F)(F)F)cc2Cl)ccc1Cl [F381, 2-Methylallyl 3-chloro-6-(2-chloro-4-(trifluoromethyl)phenyl)picolinate] | 0 to 29%
12 | COc1cc(C(F)(F)F)ccc1-c1ncc(Cl)c(C(=O)O)n1 [F366, 5-Chloro-2-(2-methoxy-4-(trifluoromethyl)phenyl)pyrimidine-4-carboxylic acid] | 0 to 29%

Same assay, conditions: post-emergence, 336 h, SETFA: giant foxtail (Setaria faberi), 140 g ai/ha, 14 days after application, read-out: Visual Growth Reduction (%) 14 Days After Application, SETFA

Row | Compound | pest or weed control at 140 g/ha
13 | COC(=O)c1nc(-c2ccc(C(F)(F)F)c(OC)c2)ccc1Cl [F296, Methyl 3-chloro-6-(3-methoxy-4-(trifluoromethyl)phenyl)picolinate] | 0 to 29%
14 | C=C(C)COC(=O)c1nc(-c2ccc(C(F)(F)F)cc2Cl)ccc1Cl [F381, 2-Methylallyl 3-chloro-6-(2-chloro-4-(trifluoromethyl)phenyl)picolinate] | 85 to 94%
15 | COc1cc(C(F)(F)F)ccc1-c1ncc(Cl)c(C(=O)O)n1 [F366, 5-Chloro-2-(2-methoxy-4-(trifluoromethyl)phenyl)pyrimidine-4-carboxylic acid] | 75 to 84%

Same assay, conditions: post-emergence, 336 h, SORVU: grain sorghum (Sorghum vulgare), 140 g ai/ha, 14 days after application, read-out: Visual Growth Reduction (%) 14 Days After Application, SORVU

Row | Compound | pest or weed control at 140 g/ha
16 | COC(=O)c1nc(-c2ccc(C(F)(F)F)c(OC)c2)ccc1Cl [F296, Methyl 3-chloro-6-(3-methoxy-4-(trifluoromethyl)phenyl)picolinate] | 0 to 29%
17 | C=C(C)COC(=O)c1nc(-c2ccc(C(F)(F)F)cc2Cl)ccc1Cl [F381, 2-Methylallyl 3-chloro-6-(2-chloro-4-(trifluoromethyl)phenyl)picolinate] | 85 to 94%
18 | COc1cc(C(F)(F)F)ccc1-c1ncc(Cl)c(C(=O)O)n1 [F366, 5-Chloro-2-(2-methoxy-4-(trifluoromethyl)phenyl)pyrimidine-4-carboxylic acid] | 75 to 84%

Same assay, conditions: post-emergence, 336 h, STEME: common chickweed (Stellaria media), 140 g ai/ha, 14 days after application, read-out: Visual Growth Reduction (%) 14 Days After Application, STEME

Row | Compound | pest or weed control at 140 g/ha
19 | COC(=O)c1nc(-c2ccc(C(F)(F)F)c(OC)c2)ccc1Cl [F296, Methyl 3-chloro-6-(3-methoxy-4-(trifluoromethyl)phenyl)picolinate] | 0 to 29%
20 | C=C(C)COC(=O)c1nc(-c2ccc(C(F)(F)F)cc2Cl)ccc1Cl [F381, 2-Methylallyl 3-chloro-6-(2-chloro-4-(trifluoromethyl)phenyl)picolinate] | 0 to 29%
21 | COc1cc(C(F)(F)F)ccc1-c1ncc(Cl)c(C(=O)O)n1 [F366, 5-Chloro-2-(2-methoxy-4-(trifluoromethyl)phenyl)pyrimidine-4-carboxylic acid] | 0 to 29%

Same assay, conditions: post-emergence, 336 h, TRZAS: wheat, spring (Triticum aestivum), 140 g ai/ha, 14 days after application, read-out: Visual Growth Reduction (%) 14 Days After Application, TRZAS

Row | Compound | pest or weed control at 140 g/ha
22 | COC(=O)c1nc(-c2ccc(C(F)(F)F)c(OC)c2)ccc1Cl [F296, Methyl 3-chloro-6-(3-methoxy-4-(trifluoromethyl)phenyl)picolinate] | 0 to 29%
23 | C=C(C)COC(=O)c1nc(-c2ccc(C(F)(F)F)cc2Cl)ccc1Cl [F381, 2-Methylallyl 3-chloro-6-(2-chloro-4-(trifluoromethyl)phenyl)picolinate] | 60 to 74%
24 | COc1cc(C(F)(F)F)ccc1-c1ncc(Cl)c(C(=O)O)n1 [F366, 5-Chloro-2-(2-methoxy-4-(trifluoromethyl)phenyl)pyrimidine-4-carboxylic acid] | 0 to 29%

Same assay, conditions: post-emergence, 336 h, blackgrass (Alopecurus myosuroides), 14 Days After Application, 140 g ai/ha, read-out: Visual Growth Reduction (%) ALOMY

Row | Compound | pest or weed control at 140 g/ha
25 | COC(=O)c1nc(-c2ccc(C(F)(F)F)c(OC)c2)ccc1Cl [F296, Methyl 3-chloro-6-(3-methoxy-4-(trifluoromethyl)phenyl)picolinate] | 0 to 29%
26 | C=C(C)COC(=O)c1nc(-c2ccc(C(F)(F)F)cc2Cl)ccc1Cl [F381, 2-Methylallyl 3-chloro-6-(2-chloro-4-(trifluoromethyl)phenyl)picolinate] | 45 to 59%
27 | COc1cc(C(F)(F)F)ccc1-c1ncc(Cl)c(C(=O)O)n1 [F366, 5-Chloro-2-(2-methoxy-4-(trifluoromethyl)phenyl)pyrimidine-4-carboxylic acid] | 0 to 29%

Same assay, conditions: post-emergence, 336 h, canada thistle (Cirsium arvense), 14 Days After Application, 140 g ai/ha, read-out: Visual Growth Reduction (%) CIRAR

Row | Compound | pest or weed control at 140 g/ha
28 | COC(=O)c1nc(-c2ccc(C(F)(F)F)c(OC)c2)ccc1Cl [F296, Methyl 3-chloro-6-(3-methoxy-4-(trifluoromethyl)phenyl)picolinate] | 60 to 74%
29 | C=C(C)COC(=O)c1nc(-c2ccc(C(F)(F)F)cc2Cl)ccc1Cl [F381, 2-Methylallyl 3-chloro-6-(2-chloro-4-(trifluoromethyl)phenyl)picolinate] | 85 to 94%
30 | COc1cc(C(F)(F)F)ccc1-c1ncc(Cl)c(C(=O)O)n1 [F366, 5-Chloro-2-(2-methoxy-4-(trifluoromethyl)phenyl)pyrimidine-4-carboxylic acid] | 30 to 44%

Same assay, conditions: post-emergence, 336 h, crabgrass (Digitaria sanguinalis), 14 Days After Application, 140 g ai/ha, read-out: Visual Growth Reduction (%) DIGSA

Row | Compound | pest or weed control at 140 g/ha
31 | COC(=O)c1nc(-c2ccc(C(F)(F)F)c(OC)c2)ccc1Cl [F296, Methyl 3-chloro-6-(3-methoxy-4-(trifluoromethyl)phenyl)picolinate] | 0 to 29%
32 | C=C(C)COC(=O)c1nc(-c2ccc(C(F)(F)F)cc2Cl)ccc1Cl [F381, 2-Methylallyl 3-chloro-6-(2-chloro-4-(trifluoromethyl)phenyl)picolinate] | 85 to 94%
33 | COc1cc(C(F)(F)F)ccc1-c1ncc(Cl)c(C(=O)O)n1 [F366, 5-Chloro-2-(2-methoxy-4-(trifluoromethyl)phenyl)pyrimidine-4-carboxylic acid] | 75 to 84%

Same assay, conditions: post-emergence, 336 h, lambsquarters (Chenopodium album), 14 Days After Application, 140 g ai/ha, read-out: Visual Growth Reduction (%) CHEAL

Row | Compound | pest or weed control at 140 g/ha
34 | COC(=O)c1nc(-c2ccc(C(F)(F)F)c(OC)c2)ccc1Cl [F296, Methyl 3-chloro-6-(3-methoxy-4-(trifluoromethyl)phenyl)picolinate] | 0 to 29%
35 | C=C(C)COC(=O)c1nc(-c2ccc(C(F)(F)F)cc2Cl)ccc1Cl [F381, 2-Methylallyl 3-chloro-6-(2-chloro-4-(trifluoromethyl)phenyl)picolinate] | 95 to 100%
36 | COc1cc(C(F)(F)F)ccc1-c1ncc(Cl)c(C(=O)O)n1 [F366, 5-Chloro-2-(2-methoxy-4-(trifluoromethyl)phenyl)pyrimidine-4-carboxylic acid] | 85 to 94%

Same assay, conditions: post-emergence, 336 h, redroot pigweed (Amaranthus retroflexus), 14 Days After Application, 140 g ai/ha, read-out: Visual Growth Reduction (%) AMARE

Row | Compound | pest or weed control at 140 g/ha
37 | COC(=O)c1nc(-c2ccc(C(F)(F)F)c(OC)c2)ccc1Cl [F296, Methyl 3-chloro-6-(3-methoxy-4-(trifluoromethyl)phenyl)picolinate] | 0 to 29%
38 | C=C(C)COC(=O)c1nc(-c2ccc(C(F)(F)F)cc2Cl)ccc1Cl [F381, 2-Methylallyl 3-chloro-6-(2-chloro-4-(trifluoromethyl)phenyl)picolinate] | 85 to 94%
39 | COc1cc(C(F)(F)F)ccc1-c1ncc(Cl)c(C(=O)O)n1 [F366, 5-Chloro-2-(2-methoxy-4-(trifluoromethyl)phenyl)pyrimidine-4-carboxylic acid] | 75 to 84%

Same assay, conditions: post-emergence, 336 h, wild oat (Avena fatua), 14 Days After Application, 140 g ai/ha, read-out: Visual Growth Reduction (%) AVEFA

Row | Compound | pest or weed control at 140 g/ha
40 | COC(=O)c1nc(-c2ccc(C(F)(F)F)c(OC)c2)ccc1Cl [F296, Methyl 3-chloro-6-(3-methoxy-4-(trifluoromethyl)phenyl)picolinate] | 0 to 29%
41 | C=C(C)COC(=O)c1nc(-c2ccc(C(F)(F)F)cc2Cl)ccc1Cl [F381, 2-Methylallyl 3-chloro-6-(2-chloro-4-(trifluoromethyl)phenyl)picolinate] | 45 to 59%
42 | COc1cc(C(F)(F)F)ccc1-c1ncc(Cl)c(C(=O)O)n1 [F366, 5-Chloro-2-(2-methoxy-4-(trifluoromethyl)phenyl)pyrimidine-4-carboxylic acid] | 0 to 29%

Same assay, conditions: post-emergence, 336 h, yellow nutsedge (Cyperus esculentus), 14 Days After Application, 140 g ai/ha, read-out: Visual Growth Reduction (%) CYPES

Row | Compound | pest or weed control at 140 g/ha
43 | COC(=O)c1nc(-c2ccc(C(F)(F)F)c(OC)c2)ccc1Cl [F296, Methyl 3-chloro-6-(3-methoxy-4-(trifluoromethyl)phenyl)picolinate] | 0 to 29%
44 | C=C(C)COC(=O)c1nc(-c2ccc(C(F)(F)F)cc2Cl)ccc1Cl [F381, 2-Methylallyl 3-chloro-6-(2-chloro-4-(trifluoromethyl)phenyl)picolinate] | 0 to 29%
45 | COc1cc(C(F)(F)F)ccc1-c1ncc(Cl)c(C(=O)O)n1 [F366, 5-Chloro-2-(2-methoxy-4-(trifluoromethyl)phenyl)pyrimidine-4-carboxylic acid] | 0 to 29%
